Source: paper PMC5483439, “The Effect of Pungent and Tingling Compounds from Piper nigrum L. on Background K^+ Currents” (Frontiers in Pharmacology, 2017)

Columns and labels:
hKCNK3 = target: T1, hKCNK3 (Homo sapiens, UniProt O14649); set-up: method as in Beltrán et al., 2013; details: hKCNK3 in Xenopus oocytes; ref Beltrán et al., 2013; cited from earlier work
T1 construct: expressed in transfected cells; host or cells: Xenopus laevis oocytes injected with cRNA (plasmid pIRES-CD8, gift of Dr. Fabrice Duprat)

mKCNK18 = tested on: T2, mKCNK18; test: Two-electrode voltage clamp on Xenopus oocytes expressing mKCNK18; format: cell-based, mouse; details: 1–1000 μM
T2 construct: expressed in transfected cells; host or cells: Xenopus laevis oocytes injected with cRNA (subcloned into pSGEM; clone from Prof; Dr. P. Enyedi)
Description: Human KCNK3 (TASK-1, K2P3.1) cloned into the expression vector pIRES-CD8 was a gift from Dr. Fabrice Duprat (Institut National de la Santé et de la Recherche Médicale, Antipolis, France). Human KCNK18 (hTRESK, K2P18.1), cloned into the plasmid pEXO, was a gift from Dr. P. Enyedi (Semmelweis University, Budapest, Hungary). These plasmids were linearized with the restriction enzymes BamHI and XbaI, respectively, and then used as templates for in vitro transcription. Human KCNK9 (hTASK-3, K2P9.1) cloned into the expression vector pCR4-TOPO, was purchased from Imagenes (Berlin, Germany). The plasmid was linearized with the restriction enzyme SspI, to generate a linear cDNA template for in vitro transcription. mKCNK3 was isolated from mouse heart by standard procedures and inserted into pSGEM. mKCNK9 and mKCNK18 were kindly provided by Dr. D. Bayliss (University of Virginia, Charlottesville, VA, United States) and Prof. Dr. P. Enyedi (Semmelweis University, Budapest, Hungary). Both channels were subcloned into pSGEM. The pSGEM plasmids were subsequently linearized with the restriction enzyme PacI. The capped RNAs were synthesized in the presence of the capping analog m7G(5′)ppp(5′)G using the AmpliCap-T7 Message Maker kit (Epicentre, Madison, WI, United States). The cRNA was dissolved in nuclease-free water to obtain a final concentration of 100 ng/μL. […]

T1 sequence (O14649 whole entry): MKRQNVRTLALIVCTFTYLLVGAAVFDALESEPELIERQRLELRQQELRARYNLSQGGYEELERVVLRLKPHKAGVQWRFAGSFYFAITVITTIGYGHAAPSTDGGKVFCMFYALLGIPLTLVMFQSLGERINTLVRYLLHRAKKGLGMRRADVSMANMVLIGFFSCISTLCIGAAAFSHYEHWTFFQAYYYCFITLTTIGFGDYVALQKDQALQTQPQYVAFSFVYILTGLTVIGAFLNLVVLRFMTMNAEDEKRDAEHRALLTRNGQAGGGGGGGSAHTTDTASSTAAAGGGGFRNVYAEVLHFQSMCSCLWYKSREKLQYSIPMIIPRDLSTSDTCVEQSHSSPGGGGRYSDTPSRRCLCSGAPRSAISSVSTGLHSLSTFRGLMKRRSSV

## O=C(/C=C/C=C/c1ccc2c(c1)OCO2)N1CCCCC1 [1a, piperine]
hKCNK3
  % of basal activity after saturating concentrations: 46 ± 10%
mKCNK18
  effect on mKCNK18: much less affected
